# According to patent publication US4960787A, “Certain pyrrolyl-substituted hydroxamic acid derivatives” (Ciba-Geigy Corporation, priority 1989, dated 1990):
# Experiments:
# 5-lipoxygenase [1] = assay: ex vivo inhibition of A-23187-stimulated LTB4 formation in whole blood after oral administration; conditions: dose of about 3 mg/kg p.o. to the dog
# Description: Furthermore, the inhibition of 5-lipoxygenase is determined after oral or i.v. administration to rats or dogs by measuring ex vivo in whole blood the decrease of A-23187-stimulated LTB4 formation as compared to non-treated control animals.
# (§1) Illustrative of the invention, the compound of example 1a, (E)-3-(1-cycloheptyl-1H-pyrrol-3-yl)-N-hydroxy-N-methyl-2-propenamide, inhibits the formation of 5-HETE [(5S)-5-hydroxy-6,8,11,14-eicosatetraenoic acid] and leukotriene B4 (LTB4, 5,12-dihydroxy-6,8,10,14-eicosatetraenoic acid) in A-23187-stimulated guinea pig polymorphonuclear leukocytes, e.g. at an IC50 of about 0.1 micromolar (1×10^-7 M).
# [2] = system: rat pleurisy model of inflammation; assay: carrageenin-induced pleurisy model, exudate volume; type: in vivo; conditions: 10 mg/kg p.o. for two days at -1, 6, 24 and 45 hours relative to carrageenin injection, 48 hours after injection
# 5-lipoxygenase [3] = target: T1, 5-lipoxygenase (Cavia porcellus, UniProt A0A286X958); assay: inhibition of 5-HETE and LTB4 synthesis in A-23187-stimulated guinea pig polymorphonuclear leukocytes; type: cell-based; conditions: also printed as 1×10^-7 M, read-out: IC50, inhibition of the formation of 5-HETE and leukotriene B4 (LTB4)
# T1 construct: A-23187-stimulated guinea pig polymorphonuclear leukocytes; endogenous in cells; host or cells: guinea pig polymorphonuclear leukocytes
# T1 sequence (A0A286X958 1-674): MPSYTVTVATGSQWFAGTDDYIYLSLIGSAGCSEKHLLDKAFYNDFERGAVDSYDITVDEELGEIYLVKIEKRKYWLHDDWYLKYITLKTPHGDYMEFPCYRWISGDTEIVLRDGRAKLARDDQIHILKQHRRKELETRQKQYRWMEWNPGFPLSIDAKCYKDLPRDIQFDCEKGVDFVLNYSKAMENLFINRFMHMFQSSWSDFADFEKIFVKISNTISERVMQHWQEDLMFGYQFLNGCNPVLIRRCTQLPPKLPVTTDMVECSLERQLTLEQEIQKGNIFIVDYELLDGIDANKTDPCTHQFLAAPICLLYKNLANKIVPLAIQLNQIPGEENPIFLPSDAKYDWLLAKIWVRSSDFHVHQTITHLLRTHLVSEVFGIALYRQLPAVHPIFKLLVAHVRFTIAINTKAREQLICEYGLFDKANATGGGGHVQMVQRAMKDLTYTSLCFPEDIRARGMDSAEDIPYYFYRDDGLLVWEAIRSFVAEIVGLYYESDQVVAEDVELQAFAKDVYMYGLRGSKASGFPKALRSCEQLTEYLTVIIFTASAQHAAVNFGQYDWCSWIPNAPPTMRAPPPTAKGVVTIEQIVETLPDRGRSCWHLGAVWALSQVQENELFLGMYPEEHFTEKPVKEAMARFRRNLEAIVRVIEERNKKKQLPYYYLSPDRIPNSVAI
# Description: 5-Lipoxygenase inhibition is determined e.g. by measuring the percent inhibition of the synthesis of 5-HETE [(5S)-5-hydroxy-6,8,11,14-eicosa-tetraenoic acid] and leukotriene B4 (LTB4, 5,12-dihydroxy-6,8,10,14-eicosatetraenoic acid) in A-23187-stimulated guinea pig polymorphonuclear leukocytes, essentially according to radiometric thin-layer chromatographic assays described by Walker and Dawson (J. Pharm. Pharmacol. 31: 778, 1979) and Jakschik and Lee (Nature 287: 51, 1980) used to measure the formation of 5-HETE and LTB4 -like products from ^14 C-arachidonic acid. IC50 values are determined graphically as the concentration of test compound at which the synthesis of 5-HETE and LTB4 -like products is reduced to 50% of their respective control values.
# as §1
smiles,measurement,setting,value
"CN(O)C(=O)/C=C/c1ccn(C2CCCCCC2)c1 [example 1a, (E)-3-(1-cycloheptyl-1H-pyrrol-3-yl)-N-hydroxy-N-methyl-2-propenamide]",inhibition of LTB4 formation as determined ex vivo,5-lipoxygenase [1],50%
same,inhibition of exudate volume,[2],causes inhibition of exudate volume
same,IC50,5-lipoxygenase [3],~100 nM
